Test results reported in patent US6645736B2, “Calcium independent cytosolic phospholipase A2/B enzymes” (Genetics Institute, LLC, priority 1994, dated 2003).

Legend:
[1] = biological target: T1, calcium independent cytosolic phospholipase A2/B (Cricetulus griseus, UniProt A0A3L7I2I8); test: Liposome assay (Example 3A); assay type: biochemical, Chinese hamster; settings: assay of Example 3A (liposome)
T1 construct: purified from the cytosol of Chinese hamster ovary (CHO) cells; endogenous in cells; host or cells: CHO cells (cytosol; Mono P / heparin / size-exclusion fractions)
T1 sequence (A0A3L7I2I8 1-752 isoform A0A3L7I2I8-2): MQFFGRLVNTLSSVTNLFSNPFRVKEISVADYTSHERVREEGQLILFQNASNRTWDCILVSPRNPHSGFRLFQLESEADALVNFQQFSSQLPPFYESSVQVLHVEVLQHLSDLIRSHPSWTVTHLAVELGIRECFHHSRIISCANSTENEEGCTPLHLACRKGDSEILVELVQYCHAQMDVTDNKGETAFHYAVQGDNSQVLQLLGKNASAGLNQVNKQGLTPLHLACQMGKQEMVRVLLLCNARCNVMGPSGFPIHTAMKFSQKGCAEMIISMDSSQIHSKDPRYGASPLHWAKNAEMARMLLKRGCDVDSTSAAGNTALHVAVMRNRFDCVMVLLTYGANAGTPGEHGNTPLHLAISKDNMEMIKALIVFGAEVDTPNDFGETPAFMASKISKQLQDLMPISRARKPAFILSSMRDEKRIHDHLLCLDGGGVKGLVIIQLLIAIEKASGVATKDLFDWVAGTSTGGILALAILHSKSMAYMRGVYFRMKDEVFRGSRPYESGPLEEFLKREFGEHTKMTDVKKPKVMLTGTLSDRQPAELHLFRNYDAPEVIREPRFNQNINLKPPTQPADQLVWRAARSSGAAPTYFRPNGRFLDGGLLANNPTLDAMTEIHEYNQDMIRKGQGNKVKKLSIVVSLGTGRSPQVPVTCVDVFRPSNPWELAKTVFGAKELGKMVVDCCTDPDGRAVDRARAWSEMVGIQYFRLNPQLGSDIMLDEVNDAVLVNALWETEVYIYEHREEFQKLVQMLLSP
Experimental: A) Liposome: The lipid, e.g. 1-palmitoyl-2-[^14C]arachidonyl-sn-glycero-3-phosphocholine (PAPC), 55 mCi/mmol, was dried under a stream of nitrogen and solubilized in ethanol. The assay buffer contained 100 mM Tris-HCl pH 7, 4 mM EDTA, 4 mM EGTA, 10% glycerol and 25 μM of labelled PAPC, where the volume of ethanol added was no more than 10% of the final assay volume. […] Half of the organic was applied to a disposable silica gel column in a vacuum manifold positioned over a scintillation vial, and the free arachidonic was eluted by the addition of ethyl ether (1 ml). The level of radioactivity was measured by liquid scintillation.
Variations on this assay replace EDTA and EGTA with 10 mM CaCl2.

[2] = biological target: T1, calcium independent cytosolic phospholipase A2/B; test: Phospholipase hydrolysis assays, format not specified; assay type: biochemical, Chinese hamster
Experimental: 1. sn-2 Hydrolysis Assays
A) Liposome: The lipid, e.g. 1-palmitoyl-2-[^14C]arachidonyl-sn-glycero-3-phosphocholine (PAPC), 55 mCi/mmol, was dried under a stream of nitrogen and solubilized in ethanol. The assay buffer contained 100 mM Tris-HCl pH 7, 4 mM EDTA, 4 mM EGTA, 10% glycerol and 25 μM of labelled PAPC, where the volume of ethanol added was no more than 10% of the final assay volume. The reaction was incubated for 30 minutes at 37° C. and quenched by the addition of two volumes of heptane:isopropanol:0.5M sulfuric acid (105:20:1 v/v). Half of the organic was applied to a disposable silica gel column in a vacuum manifold positioned over a scintillation vial, and the free arachidonic was eluted by the addition of ethyl ether (1 ml). The level of radioactivity was measured by liquid scintillation.
B) Mixed Micelle Basic: The lipid was dried down as in (A) and to this was added the assay buffer consisting of 80 mM glycine pH 9, 5 mM CaCl2 or 5 mM EDTA, 10% or 70% glycerol and […] triton X-100. The mixture was then sonicated for 30-60 seconds at 4° C. to form mixed micelles.
C) Mixed Micelle Neutral: As for (B) except 100 mM Tris-HCl pH 7 was used instead of glycine as the buffer.
Sn-1 hydrolysis assays are performed as described above for […], but using phospholipids labelled at the sn-1 substituent, e.g. 1-[^14C]-palmitoyl-2-arachidonyl-sn-glycero-3-phophocholine.

cPLA2 = biological target: T2, cPLA2 (Homo sapiens, UniProt P47712); settings: comparison enzyme; cited from earlier work
T2 sequence (P47712 1-749): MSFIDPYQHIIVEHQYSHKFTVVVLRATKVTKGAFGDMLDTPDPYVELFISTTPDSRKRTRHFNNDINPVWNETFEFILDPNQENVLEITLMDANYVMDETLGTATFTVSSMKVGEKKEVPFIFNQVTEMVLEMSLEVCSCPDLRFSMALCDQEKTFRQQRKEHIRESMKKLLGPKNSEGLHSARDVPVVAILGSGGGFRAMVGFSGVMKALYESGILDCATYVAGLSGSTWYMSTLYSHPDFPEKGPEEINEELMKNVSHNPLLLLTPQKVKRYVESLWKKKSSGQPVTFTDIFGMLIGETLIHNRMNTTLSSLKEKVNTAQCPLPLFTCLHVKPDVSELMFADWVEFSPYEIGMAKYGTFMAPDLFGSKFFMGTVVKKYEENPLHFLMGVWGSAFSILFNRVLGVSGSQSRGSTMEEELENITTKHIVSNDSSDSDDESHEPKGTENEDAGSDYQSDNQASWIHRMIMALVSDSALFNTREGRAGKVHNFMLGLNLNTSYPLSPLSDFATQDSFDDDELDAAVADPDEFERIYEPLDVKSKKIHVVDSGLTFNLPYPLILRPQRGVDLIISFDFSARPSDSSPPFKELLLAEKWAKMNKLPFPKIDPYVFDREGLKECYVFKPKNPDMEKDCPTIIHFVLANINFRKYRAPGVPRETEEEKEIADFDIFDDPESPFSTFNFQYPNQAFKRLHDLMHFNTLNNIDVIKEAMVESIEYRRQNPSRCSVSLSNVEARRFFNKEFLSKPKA

triton X-100
effect on enzyme activity [1]: suppressed

Nc1ncnc2c1ncn2[C@@H]1O[C@H](COP(=O)(O)OP(=O)(O)OP(=O)(O)O)[C@@H](O)[C@H]1O [adenosine triphosphate]
effect on enzyme activity [1]: not stimulated

C[C@H](CCC(=O)NCCC[N+](C)(C)CCCS(=O)(=O)[O-])[C@H]1CC[C@H]2[C@@H]3[C@H](O)C[C@@H]4C[C@H](O)CC[C@]4(C)[C@H]3C[C@H](O)[C@]12C [CHAPS]
inactivation of the enzyme by detergents [2]: inactivated

[Ca+2] [calcium]
effect on enzyme activity ([2]; in all assays): suppressed

CCCCCCCCO[C@@H]1O[C@H](CO)[C@@H](O)[C@H](O)[C@H]1O [octyl glucoside]
inactivation of the enzyme by detergents [2]: inactivated

NC(N)=O [urea]
denaturant concentration that inactivates the enzyme ([2]; high concentration denaturants): above 3 M

B1: cPLA2: 110 kD calcium dependent cytosolic phospholipase A2 of U.S. Pat. No. 5,322,776 (protein, UniProt P47712 1-749, looked up)
Cytosolic phospholipase A2: MSFIDPYQHIIVEHQYSHKFTVVVLRATKVTKGAFGDMLDTPDPYVELFISTTPDSRKRTRHFNNDINPVWNETFEFILDPNQENVLEITLMDANYVMDETLGTATFTVSSMKVGEKKEVPFIFNQVTEMVLEMSLEVCSCPDLRFSMALCDQEKTFRQQRKEHIRESMKKLLGPKNSEGLHSARDVPVVAILGSGGGFRAMVGFSGVMKALYESGILDCATYVAGLSGSTWYMSTLYSHPDFPEKGPEEINEELMKNVSHNPLLLLTPQKVKRYVESLWKKKSSGQPVTFTDIFGMLIGETLIHNRMNTTLSSLKEKVNTAQCPLPLFTCLHVKPDVSELMFADWVEFSPYEIGMAKYGTFMAPDLFGSKFFMGTVVKKYEENPLHFLMGVWGSAFSILFNRVLGVSGSQSRGSTMEEELENITTKHIVSNDSSDSDDESHEPKGTENEDAGSDYQSDNQASWIHRMIMALVSDSALFNTREGRAGKVHNFMLGLNLNTSYPLSPLSDFATQDSFDDDELDAAVADPDEFERIYEPLDVKSKKIHVVDSGLTFNLPYPLILRPQRGVDLIISFDFSARPSDSSPPFKELLLAEKWAKMNKLPFPKIDPYVFDREGLKECYVFKPKNPDMEKDCPTIIHFVLANINFRKYRAPGVPRETEEEKEIADFDIFDDPESPFSTFNFQYPNQAFKRLHDLMHFNTLNNIDVIKEAMVESIEYRRQNPSRCSVSLSNVEARRFFNKEFLSKPKA
pH optimum (cPLA2): greater than 8

B2: calcium independent phospholipase: 86 kD calcium independent cytosolic phospholipase enzyme purified from the cytosol of CHO cells, SEQ ID NO:2 (protein)
chain: MQFFGRLVNTLSSVTNLFSNPFRVKEISVADYTSHERVREEGQLILFQNASNRTWDCILVSPRNPHSGFRLFQLESEADALVNFQQFSSQLPPFYESSVQVLHVEVLQHLSDLIRSHPSWTVTHLAVELGIRECFHHSRIISCANSTENEEGCTPLHLACRKGDSEILVELVQYCHAQMDVTDNKGETAFHYAVQGDNSQVLQLLGKNASAGLNQVNKQGLTPLHLACQMGKQEMVRVLLLCNARCNVMGPSGFPIHTAMKFSQKGCAEMIISMDSSQIHSKDPRYGASPLHWAKNAEMARMLLKRGCDVDSTSAAGNTALHVAVMRNRFDCVMVLLTYGANAGTPGEHGNTPLHLAISKDNMEMIKALIVFGAEVDTPNDFGETPAFMASKISKQLQDLMPISRARKPAFILSSMRDEKRIHDHLLCLDGGGVKGLVIIQLLIAIEKASGVATKDLFDWVAGTSTGGILALAILHSKSMAYMRGVYFRMKDEVFRGSRPYESGPLEEFLKREFGEHTKMTDVKKPKVMLTGTLSDRQPAELHLFRNYDAPEVIREPRFNQNINLKPPTQPADQLVWRAARSSGAAPTYFRPNGRFLDGGLLANNPTLDAMTEIHEYNQDMIRKGQGNKVKKLSIVVSLGTGRSPQVPVTCVDVFRPSNPWELAKTVFGAKELGKMVVDCCTDPDGRAVDRARAWSEMVGIQYFRLNPQLGSDIMLDEVNDAVLVNALWETEVYIYEHREEFQKLVQMLLSP
pH optimum [2]: 6
initial rate of hydrolysis, sn-2 position higher than sn-1 ([2]; PAPC with either palmitoyl or arachidonyl labelled with 14C): 2-3 fold
